| SMILES | melting point [°C] |
| --- | --- |
| CCOc1ccc(S(N)(=O)=O)cc1OCC | 152 to 154 |
| CCOC(=O)c1nnc2ccccc2c1N | 239 to 241 |
| CC1(C)CC(=O)c2cc(Br)cc(Cl)c2O1 | 48 to 50 |
| COC(=O)c1oc2ccccc2c1CBr | 104 to 106 |
| O=[N+]([O-])c1ccn(CCBr)n1 | 50 to 52 |
| Cc1cc(C)c(C(=O)CCl)c(C)c1C(=O)CCl | 136 to 138 |
| CCNC(=O)c1ccc(N)cc1 | 73 to 75 |
| Nc1cc(C(=O)O)ccc1NCCCN1CCOCC1 | 216 to 218 |
| Cc1csc(CC(N)=S)n1 | 126 to 128 |
| CCCCn1c(=O)[nH]c(=O)c2c1nc(CCl)n2C | 222 to 224 |
| O=C(O)c1ccc(C=C2NC(=S)N(c3ccc(F)cc3)C2=O)cc1 | 349 to 351 |
| O=C(Cc1ccc(Br)cc1)C(F)(F)F | 38 to 40 |
| CS(=O)(=O)c1cccc(C(=O)c2ccc(F)cc2)c1 | 66 to 68 |
| O=C(O)C1(Br)CCCC1 | 66 to 68 |
| COCCOc1ccc(C(=O)O)cc1[N+](=O)[O-] | 134 to 136 |
| CCCC(N)c1nnn[nH]1 (centres undefined) | 277 to 279 |
| CN(C)C(=O)c1ccc(O)cc1 | 156 to 158 |
| CCOc1cc2c(cc1OCC)CNCC2 | 108 to 110 |
| O=C1c2ccccc2S(=O)(=O)N1CCl | 145 to 147 |
| COc1cc(F)c(N)cc1F | 80 to 82 |
| CCOC(=O)C(N)=NO | 94 to 96 |
| O=C(O)CCCNS(=O)(=O)c1ccc2c(c1)OCCO2 | 120 to 122 |
| Fc1cc2ncnc(Cl)c2cc1F | 89 to 91 |
| CN(CC(=O)O)S(C)(=O)=O | 54 to 56 |
| O=Cc1cc(Br)ccc1OCC(=O)O | 170 to 172 |
| Nc1ccc(-c2cc[nH]n2)cc1 | 99 to 101 |
| O=C(CCl)c1c[nH]c(C(=O)N2CCCC2)c1 | 200 to 204 |

| SMILES | melting point [°C] |
| --- | --- |
| O=C(CCl)N1CC=C(c2c[nH]c3ccccc23)CC1 | 172 to 174 |
| ClCc1nc(Cl)c2c3c(sc2n1)CCCC3 | 89 to 91 |
| Nc1cc(F)cc(S(N)(=O)=O)c1 | 153 to 155 |
| O=C(O)C1(c2ccccc2Cl)CCOCC1 | 201 to 203 |
| Brc1ccc(-n2cccn2)cc1 | 69 to 71 |
| O=C(O)c1ccn(-c2cccc(Cl)c2)n1 | 143 to 145 |
| CN1C(=O)Cc2cc(C(=O)CCl)ccc21 | 199 to 201 |
| CCOC(=O)CNc1cc(Cl)cc(Cl)c1 | 99 to 101 |
| CCNC(=O)C1CCCNC1 (centres undefined) | 60 to 62 |
| Clc1ccc2cc(Br)ccc2n1 | 159 to 161 |
| CC(C)(C)c1ccc(Oc2ccc(C(=O)O)cc2F)cc1 | 171 to 173 |
| COc1ccc(Br)cc1C(N)=S | 143 to 145 |
| O=C(O)C1CSC(c2ccsc2)N1 (centres undefined) | 144 to 146 |
| Nc1nc2nc(-c3cccs3)cc(C(F)(F)F)c2s1 | 243 to 245 |
| O=C(O)C(Cc1ccccc1)NC(=O)C12CC3CC(CC(C3)C1)C2 (centres undefined) | 162 to 164 |
| Nc1ccc(S(=O)(=O)NCc2ccco2)cc1 | 180 to 182 |
| Nc1ccccc1Sc1nncs1 | 109 to 111 |
| NC(=O)Cc1ccc(OCC(=O)O)cc1 | 171 to 173 |
| COc1cc(F)c([N+](=O)[O-])cc1OC | 139 to 141 |
| Cc1ccc(C2(C)CC(=O)NC2=O)cc1 (centres undefined) | 69 to 71 |
| Nc1cc(Cl)cc(Br)c1O | 83 to 85 |
| COCC(C)NS(=O)(=O)c1ccc(Cl)c([N+](=O)[O-])c1 (centres undefined) | 209 to 211 |
| Clc1cc(SCc2ccccc2)ncn1 | 71 to 73 |
| Cc1nc(N(C)C)sc1C=O | 116 to 118 |
| CNS(=O)(=O)c1ccc2c(c1)CCN2 | 124 to 126 |
| O=C(CCl)NCc1ccc(F)cc1 | 92 to 95 |
| O=Cc1ccc(N2CCNCC2)s1 | 59 to 63 |

| SMILES | melting point [°C] |
| --- | --- |
| O=C(CN1CCNCC1)Nc1ccccc1Cl | 99 to 101 |
| O=C(O)c1cc(N/N=C/c2ccccc2Br)ccc1Cl | 180 to 182 |
| NC(=NO)c1cccc(Br)c1 | 132 to 134 |
| COc1ccc(S(=O)(=O)N2CCOCC2)cc1NC(=O)CCl | 180 to 182 |
| NC(=O)COc1cccc(CCl)c1 | 114 to 116 |
| CC(=O)c1sc(N)nc1-c1ccccc1 | 145 to 147 |
| Cc1cc(NN)nc(-c2ccccn2)n1 | 175 to 177 |
| O=Cc1c(Cl)cccc1OC(F)F | 37 to 39 |
| Fc1ccc(-c2nnc(Cl)c3ccccc23)cc1F | 164 to 166 |
| CN(C)S(=O)(=O)c1ccc(C#N)cc1 | 128 to 130 |
| O=C(O)c1ccc(-c2cccs2)cc1F | 228 to 230 |
| COc1ccc(Oc2ccc(C=O)cc2)cc1 | 65 to 67 |
| O=[N+]([O-])c1ccc(Cl)c(CCl)c1 | 61 to 63 |
| CC(C)(C)CNC(=O)c1ccc(C(=O)O)cc1 | 201 to 203 |
| Cc1cc(C)c(C(=O)CCCC(=O)O)c(C)c1 | 75 to 77 |
| Nc1[nH]nc(-c2ccccc2)c1-c1ccccc1 | 141 to 143 |
| COC(=O)c1cc2c(OC(F)F)cccc2[nH]1 | 144 to 146 |
| CC(=O)Nc1ccccc1CC(=O)O | 144 to 146 |
| CC(C)(C)OC(=O)NCC(=O)NN | 79 to 81 |
| O=C(O)c1ccc(-c2ccc(F)cc2)cc1F | 237 to 239 |
| CC(=O)NCc1ccc(C(=O)CCl)s1 | 143 to 145 |
| O=C(O)CCc1cc2ccccc2o1 | 110 to 112 |
| O=c1[nH]cnc2c(-c3ccccc3)nsc12 | 256 to 258 |
| O=C(CCl)Nc1c(F)cc(F)cc1Br | 132 to 134 |
| O=C(O)c1ccc(S(=O)(=O)N2CCCc3ccccc32)cc1 | 170 to 172 |
| COC(=O)c1cc2c(C)c(C)ccc2[nH]1 | 144 to 146 |

Now from value to molecule:

| melting point [°C] | SMILES |
| --- | --- |
| 159 to 161 | O=C(O)c1cc(N2CCCC2=O)ccc1Cl |
| 201 to 203 | CC1=NN(c2cccc(Br)c2)C(=O)C1CC(=O)O (centres undefined) |
| 322 to 324 | N#Cc1cn(-c2ccc([N+](=O)[O-])cn2)nc1N |
| 90 to 92 | CC(C)Cc1cc(N)n(C)n1 |
| 107 to 109 | O=C(O)C1CCN(C(=O)CCc2ccccc2)CC1 |
| 165 to 167 | CCc1cccc(CC)c1Nc1nnc(S)s1 |
| 93 to 95 | COC(=O)CCNc1ccncc1[N+](=O)[O-] |
| 54 to 56 | Cc1cc(Br)ncc1N |
| 158 to 160 | COc1ccc(C)cc1-n1ccc(C(=O)O)n1 |
| < 17 | CCn1c(C)cc(C(=O)O)c1C |
| 316 to 318 | CNc1ncnc2nc[nH]c12 |
| 67 to 69 | C#CCn1c(C)nc2ccccc21 |
| 130 to 132 | CS(=O)(=O)NCC1CCCNC1 (centres undefined) |
| 153 to 155 | CC(C)c1ccc(S(=O)(=O)N2CC(O)CC2C(=O)O)cc1 (centres undefined) |
| 184 to 186 | Cc1c(C(=O)O)nnn1-c1cccc(Br)c1 |
| 156 to 158 | O=S1(=O)CCC(Cc2nc3ccccc3[nH]2)C1 (centres undefined) |
| 175 to 177 | CC(C)c1cnc(S)n1C1CC1 |
| 104 to 106 | O=C1C(Br)CCN1c1cccc([N+](=O)[O-])c1 (centres undefined) |
| 132 to 134 | N#CCC(=O)NC1CCCCC1 |
| 87 to 89 | COc1ccc(N)cc1OCC(=O)NC1CC1 |
| 283 to 285 | O=C(O)c1ccc2c(c1)S(=O)(=O)N(C1CC1)C2=O |
| 134 to 136 | O=C(O)c1cn(-c2ccc(C(F)(F)F)cn2)nn1 |

| melting point [°C] | SMILES |
| --- | --- |
| 259 to 261 | NC(=O)C1CCCN(c2ccc(C(=O)O)cc2)C1 (centres undefined) |
| 79 to 81 | CNc1ccnc(C)n1 |
| 119 to 121 | Cn1cc(C#N)c(N)n1 |
| 112 to 114 | CC(O)c1cccc(O)c1 (centres undefined) |
| 204 to 208 | COc1ccc(-c2nnc(S)n2N)cc1OC |
| 250 to 252 | CC(C)c1ccc(/C=C(/C(=O)O)c2cccs2)cc1 |
| 154 to 156 | Cc1oc(C(=O)O)cc1Cn1cc(Br)cn1 |
| 184 to 186 | O=C(Nc1cccc(O)c1)C1CC1 |
| 164 to 166 | O=C(O)c1cc(OCC2CC2)c2ccccc2n1 |
| 203 to 205 | COc1ccccc1-c1nn(C)cc1C(=O)O |
| 163 to 165 | CC(C)(C(=O)O)C(O)c1cccc(O)c1 (centres undefined) |
| 109 to 111 | O=C(O)C1CCSCC1 |
| 188 to 201 | O=C(O)c1ccc2c(c1)C(=O)N(C1CCCCC1)C2=O |
| 187 to 189 | CC(Cl)c1nc(-c2nnc[nH]2)no1 (centres undefined) |
| 143 to 145 | CS(=O)(=O)NC1CCNCC1 |
| 66 to 68 | CC(C)CC(Cc1cccc(Br)c1)C(=O)O (centres undefined) |
| 154 to 156 | NS(=O)(=O)c1ccc(Cl)nc1 |
| 86 to 88 | O=C(O)C1CCCN(c2ncccc2C(F)(F)F)C1 (centres undefined) |
| 62 to 64 | Cc1ccc(C)c(-n2ncc(N)c2C)c1 |
| 59 to 61 | CCCOc1ccc(Cl)cc1C(=O)O |
| 110 to 112 | Nc1c(Cl)ncnc1-n1cccn1 |
| 167 to 169 | CCOC(=O)c1sc2nc(C(C)Cl)[nH]c(=O)c2c1C (centres undefined) |

| melting point [°C] | SMILES |
| --- | --- |
| 89 to 91 | O=C(O)C1CC1c1cccc(Cl)c1 (centres undefined) |
| 167 to 169 | Oc1nnc(S)n1CCc1ccccc1 |
| 94 to 96 | CSc1ccc(OC(C)C(=O)O)cc1 (centres undefined) |
| 123 to 125 | CC(C)(C(=O)O)c1ccc(Br)cc1 |
| 91 to 93 | c1ccc(NCC2CCCCC2)nc1 |
| 126 to 128 | O=C(O)C1CSc2ccccc2O1 (centres undefined) |
| 112 to 114 | COCCNC(=O)c1ccc(Cl)nc1 |
| 116 to 118 | NC(=NO)C1CN(Cc2ccccc2)CCO1 (centres undefined) |
| 312 to 314 | COc1ccc(-n2c(S)nc3sc4c(c3c2=O)CCCC4)cc1 |
| 279 to 281 | Cc1cc(C(=O)O)ccc1N1CCNC1=O |
| 122 to 124 | Cc1nn(C)c(C(F)(F)Cl)c1C(=O)O |
| 138 to 140 | Cn1nc(C(C)(C)C)cc1NC(=O)CCl |
| 96 to 98 | Cc1c(N)cc(C(=O)NC(C)c2ccccc2)cc1F (centres undefined) |
| 122 to 124 | Cc1nn(C2CCS(=O)(=O)C2)c(C)c1C=O (centres undefined) |
| 61 to 63 | Oc1ccccc1CNC1CCCCC1 |
| 62 to 64 | O=C1CCC(C(=O)O)CC1 |
| 230 to 232 | Nn1cnc2ccc(Br)cc2c1=O |
| 84 to 86 | CC(C)c1nnc(CCC(=O)O)o1 |
| 112 to 114 | Cc1cc(C=O)c(C)n1-c1ccc2c(c1)OCCO2 |
| 97 to 99 | CC(C)n1cnnc1-c1ccccc1N |

From a melting point compilation (Tetko et al.)
